Earlier results, collected in patent US8377476B2, “Butenafine hydrochloride-containing aqueous patch” (Teikoku Seiyaku Co., Ltd., priority 2008, dated 2013).
Where a name gives a salt, the structure may show the parent alone. Read-outs that look alike come from different tables or passages of the source.

Water-solubility (hydrochloride): low water-solubility | Water-solubility (listed as Butenafine hydrochloride): extremely poor water-solubility
Compound: CN(Cc1ccc(C(C)(C)C)cc1)Cc1cccc2ccccc12 [butenafine hydrochloride]
